# Measured values as given in ChEMBL document CHEMBL5120904, “Zelkovamycins F and G, Cyclopeptides with Cα-Methyl-threonine Residues, from an Endophytic Kitasatospora sp” (J Nat Prod, 2022).
# *1 amine or outer side, *2 acyl side, *3 side chain or, on linkers, in order; H or OH if unused. Where a SMILES comes first, the peptide text is derived from it. [ ]: non-standard residue; d: D form. dAla(ψthiazole) = C[C@@H](N[*:1])c1nc(C(=O)[*:2])cs1; Trp(4-OMe) = COc1cccc2[nH]cc(C[C@H](N)C(=O)O)c12; X1 = CC(=O)[C@](C)(N[*:1])C(=O)[*:2]; Dhb = C/C=C(\N)C(=O)O; Sar = CNCC(=O)O
# Legend:
# Staphylococcus aureus [1] = experiment: Antibacterial activity against methicillin-sensitive Staphylococcus aureus ATCC29213 measured after 24 hrs by broth microdilution method; assay type: functional
# Staphylococcus aureus [2] = experiment: Antibacterial activity against methicillin-resistant Staphylococcus aureus ATCC33591 measured after 24 hrs by broth microdilution method; assay type: functional
# Staphylococcus aureus [3] = experiment: Antibacterial activity against methicillin-resistant Staphylococcus aureus R6101 measured after 24 hrs by broth microdilution method; assay type: functional
# [4] = tested on: Staphylococcus epidermidis; experiment: Antibacterial activity against Staphylococcus epidermidis ATCC12228 measured after 24 hrs by broth microdilution method; assay type: functional
# Bacillus subtilis = experiment: Antibacterial activity against Bacillus subtilis ATCC6633 measured after 24 hrs by broth microdilution method; assay type: functional
# Morganella morganii [5] = experiment: Antibacterial activity against multidrug-resistant Morganella morganii KL-225 measured after 24 hrs by broth microdilution method; assay type: functional
# Morganella morganii [6] = experiment: Antibacterial activity against beta-lactamase-producing Morganella morganii ATCC25830 measured after 24 hrs by broth microdilution method; assay type: functional
# Pseudomonas aeruginosa = experiment: Antibacterial activity against Pseudomonas aeruginosa ATCC27853 measured after 24 hrs by broth microdilution method; assay type: functional
# Klebsiella pneumoniae = experiment: Antibacterial activity against Klebsiella pneumoniae ATCC700603 measured after 24 hrs by broth microdilution method; assay type: functional
# Escherichia coli = experiment: Antibacterial activity against Escherichia coli measured after 24 hrs by broth microdilution method; assay type: functional
# Influenza A virus = experiment: Antiviral activity against Influenza A virus A/WSN/33(H1N1) infected in HEK293T cells pretreated for 2 hrs followed by viral infection and measured after 24 hrs by Gaussia luciferase assay; assay type: functional, organism-based; settings: HEK-293T
# Hepatitis C virus = experiment: Antiviral activity against HCV infected in human Huh7.5 cells assessed as reduction in viral RNA level measured after 72 hrs by RT-PCR analysis; assay type: functional, organism-based, Hepacivirus hominis; settings: Huh7.5, 72 h
# [7] = Cytotoxicity against human Huh7.5 cells; assay type: toxicity, cell-based, Huh-7.5
# [8] = Selectivity index, ratio of CC50 for human Huh7.5 cells to EC50 for antiviral activity against HCV infected in human Huh7.5 cells; assay type: toxicity, cell-based; settings: read-out: Ratio CC50/EC50
SMILES,MIC (Staphylococcus aureus [1]),MIC (Staphylococcus aureus [2]),MIC (Staphylococcus aureus [3]),MIC [4],MIC (Bacillus subtilis),MIC (Morganella morganii [5]),MIC (Morganella morganii [6]),MIC (Pseudomonas aeruginosa),MIC (Klebsiella pneumoniae),MIC (Escherichia coli),EC50 (Influenza A virus),EC50 (Hepatitis C virus),CC50 [7],selectivity ratio [8]
C/C=C1\NC(=O)[C@@H](CC)NC(=O)CNC(=O)[C@](C)([C@H](C)O)NC(=O)[C@H](Cc2c[nH]c3cccc(OC)c23)NC(=O)c2csc(n2)[C@@H](C)NC(=O)CN(C)C1=O,20 µg/mL,2.5 µg/mL,40 µg/mL,1.25 µg/mL,> 160 µg/mL,160 µg/mL,80 µg/mL,> 160 µg/mL,> 160 µg/mL,> 160 µg/mL,> 50 µM,98.6 µM,> 200 µM,> 2
CC(C)OC(=O)[C@H](C)N[P@@](=O)(OC[C@H]1O[C@@H](n2ccc(=O)[nH]c2=O)[C@](C)(F)[C@@H]1O)Oc1ccccc1,–,–,–,–,–,–,–,–,–,–,–,0.06 µM,> 200 µM,> 3330
CO[C@H]1/C=C/O[C@@]2(C)Oc3c(C)c(O)c4c(O)c(c(/C=N/N5CCN(C)CC5)c(O)c4c3C2=O)NC(=O)/C(C)=C\C=C\[C@H](C)[C@H](O)[C@@H](C)[C@@H](O)[C@@H](C)[C@H](OC(C)=O)[C@@H]1C [RIFAMPIN],< 0.078 µg/mL,< 0.078 µg/mL,10 µg/mL,< 0.078 µg/mL,< 0.078 µg/mL,10 µg/mL,10 µg/mL,–,–,–,–,–,–,–
C/C=C1\NC(=O)[C@@H](CC)NC(=O)CNC(=O)[C@](C)(C(C)=O)NC(=O)[C@H](Cc2c[nH]c3cccc(OC)c23)NC(=O)c2csc(n2)[C@@H](C)NC(=O)CNC1=O,> 160 µg/mL,160 µg/mL,> 160 µg/mL,160 µg/mL,> 160 µg/mL,> 160 µg/mL,> 160 µg/mL,> 160 µg/mL,> 160 µg/mL,> 160 µg/mL,> 50 µM,98.5 µM,> 106 µM,> 1.1
C[C@H]1COc2c(N3CCN(C)CC3)c(F)cc3c(=O)c(C(=O)O)cn1c23.C[C@H]1COc2c(N3CCN(C)CC3)c(F)cc3c(=O)c(C(=O)O)cn1c23.O [LEVOFLOXACIN],0.078 µg/mL,0.078 µg/mL,5 µg/mL,0.16 µg/mL,< 0.078 µg/mL,5 µg/mL,< 0.078 µg/mL,–,–,–,–,–,–,–
CN[C@H](CC(C)C)C(=O)N[C@H]1C(=O)N[C@@H](CC(N)=O)C(=O)N[C@H]2C(=O)N[C@H]3C(=O)N[C@H](C(=O)N[C@H](C(=O)O)c4cc(O)cc(O)c4-c4cc3ccc4O)[C@H](O)c3ccc(c(Cl)c3)Oc3cc2cc(c3O[C@@H]2O[C@H](CO)[C@@H](O)[C@H](O)[C@H]2O[C@H]2C[C@](C)(N)[C@H](O)[C@H](C)O2)Oc2ccc(cc2Cl)[C@H]1O [VANCOMYCIN],1.25 µg/mL,0.62 µg/mL,> 160 µg/mL,1.25 µg/mL,< 0.078 µg/mL,> 160 µg/mL,> 160 µg/mL,–,–,–,–,–,–,–
C/C=C1\NC(=O)[C@@H](CC)NC(=O)CNC(=O)[C@](C)([C@@H](C)O)NC(=O)[C@H](Cc2c[nH]c3cccc(OC)c23)NC(=O)c2csc(n2)[C@@H](C)NC(=O)CN(C)C1=O,10 µg/mL,1.25 µg/mL,40 µg/mL,0.62 µg/mL,> 160 µg/mL,> 160 µg/mL,160 µg/mL,> 160 µg/mL,> 160 µg/mL,> 160 µg/mL,> 50 µM,–,–,–
C/C=C1\NC(=O)[C@@H](C)NC(=O)CNC(=O)[C@](C)(C(C)=O)NC(=O)[C@H](Cc2c[nH]c3cccc(OC)c23)NC(=O)c2csc(n2)[C@@H](C)NC(=O)CN(C)C1=O (cyclo([Dhb][Sar][dAla(ψthiazole)][Trp(4-OMe)][X1]G[dA])),–,–,–,–,–,–,–,–,–,–,–,2.2 µM,> 36.5 µM,> 16.6
C/C=C1\NC(=O)[C@@H](CC)NC(=O)CNC(=O)[C@](C)(C(C)=O)NC(=O)[C@H](Cc2c[nH]c3cccc(OC)c23)NC(=O)c2csc(n2)[C@@H](C)NC(=O)CN(C)C1=O,2.5 µg/mL,0.31 µg/mL,10 µg/mL,2.5 µg/mL,> 160 µg/mL,20 µg/mL,20 µg/mL,> 160 µg/mL,> 160 µg/mL,> 160 µg/mL,–,6.3 µM,> 111 µM,> 17.7
C/C=C1\NC(=O)[C@@H](C)NC(=O)CNC(=O)[C@](C)(C(C)=O)NC(=O)[C@H](Cc2c[nH]c3cccc(OC)c23)NC(=O)c2csc(n2)[C@@H](C)NC(=O)CNC1=O,> 160 µg/mL,> 160 µg/mL,> 160 µg/mL,> 160 µg/mL,> 160 µg/mL,> 160 µg/mL,> 160 µg/mL,> 160 µg/mL,> 160 µg/mL,> 160 µg/mL,> 50 µM,46.9 µM,> 200 µM,> 4.3
C/C=C1\NC(=O)[C@@H](C)NC(=O)CNC(=O)[C@@H](CC)NC(=O)[C@H](Cc2c[nH]c3cccc(OC)c23)NC(=O)c2csc(n2)[C@@H](C)NC(=O)CN(C)C1=O,> 160 µg/mL,> 160 µg/mL,> 160 µg/mL,> 160 µg/mL,> 160 µg/mL,> 160 µg/mL,> 160 µg/mL,> 160 µg/mL,> 160 µg/mL,> 160 µg/mL,> 50 µM,–,–,–
C=C1NC(=O)[C@@H](CC)NC(=O)CNC(=O)[C@](C)(C(C)=O)NC(=O)[C@H](Cc2c[nH]c3cccc(OC)c23)NC(=O)c2csc(n2)[C@@H](C)NC(=O)CN(C)C1=O,10 µg/mL,1.25 µg/mL,40 µg/mL,5 µg/mL,> 160 µg/mL,40 µg/mL,40 µg/mL,> 160 µg/mL,> 160 µg/mL,> 160 µg/mL,> 50 µM,–,–,–
Cc1onc(-c2ccccc2)c1C(=O)N[C@@H]1C(=O)N2[C@@H]1SC(C)(C)[C@@H]2C(=O)O [OXACILLIN],0.078 µg/mL,80 µg/mL,> 160 µg/mL,0.16 µg/mL,< 0.078 µg/mL,> 160 µg/mL,40 µg/mL,–,–,–,–,–,–,–
